Laboratory results as given in ChEMBL document CHEMBL1201862, “PubChem BioAssay data set” (2004).
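Where inhibition never reached the appropriate level, the endpoint shown equals the highest concentration tested. Otherwise, values were interpolated linearly from a five-concentration, 48-hour dose response in 96-well plates. GI50 is the concentration that inhibits growth by half.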 The source made the active and inactive calls. No stated cut-off is given here; in the data, active = GI50 up to about 1.1 µM and inactive = higher.

How the values were obtained:
Experiment in all cases: inhibition of tumour cell growth, NCI panel, 48 h
A549 = tested on: A549
BT-549 = tested on: BT-549
CCRF-CEM = tested on: CCRF-CEM
EKVX = tested on: EKVX
HCC 2998 = tested on: HCC 2998
HCT-116 = tested on: HCT-116
HCT-15 = tested on: HCT-15
HL-60 = tested on: HL-60
MCF7 = tested on: MCF7
MDA-MB-435 = tested on: MDA-MB-435
Malme-3M = tested on: Malme-3M
NCI/ADR-RES = tested on: NCI/ADR-RES
OVCAR-8 = tested on: OVCAR-8
RPMI-8226 = tested on: RPMI-8226
SK-MEL-28 = tested on: SK-MEL-28
SK-MEL-2 = tested on: SK-MEL-2
SK-OV-3 = tested on: SK-OV-3
SW-620 = tested on: SW-620
SF-539 = tested on: SF-539

Compound	GI50 (A549)	GI50 (BT-549)	GI50 (CCRF-CEM)	GI50 (EKVX)	GI50 (HCC 2998)	GI50 (HCT-116)	GI50 (HCT-15)	GI50 (HL-60)	GI50 (MCF7)	GI50 (MDA-MB-435)	GI50 (Malme-3M)	GI50 (NCI/ADR-RES)	GI50 (OVCAR-8)	GI50 (RPMI-8226)	GI50 (SK-MEL-28)	GI50 (SK-MEL-2)	GI50 (SK-OV-3)	GI50 (SW-620)	GI50 (SF-539)
C=CC(C)(C)n1cc(C2=C(O)C(=O)C(c3cn(C(C)(C)C=C)c4ccccc34)=C(OC(C)=O)C2=O)c2ccccc21	426 nM (active)	494 nM (active)	435 nM (active)	1110 nM (active)	908 nM (active)	429 nM (active)	375 nM	571 nM (active)	71.5 nM (active)	513 nM (active)	1460 nM (inactive)	1640 nM (inactive)	632 nM (active)	984 nM (active)	1210 nM (inactive)	1020 nM (active)	1490 nM (inactive)	1530 nM (inactive)	
Cc1ccc(-c2ccc3c(c2)Sc2ccccc2O3)n1C	675 nM (active)	3290 nM (inactive)	213 nM (active)	618 nM (active)	171 nM (active)	167 nM (active)	143 nM	125 nM (active)	324 nM (active)	26.3 nM (active)	98.4 nM (active)	206 nM (active)	693 nM (active)	179 nM (active)		130 nM (active)	536 nM (active)	264 nM (active)	308 nM (active)
COC(=O)[C@H]1ON2O[C@H](OC3CCCC[C@@H]3c3ccccc3)C[C@@H]3CC[C@H]1[C@@]32C (stereo partly specified)	60300 nM (inactive)	> 100000 nM (inactive)	> 100000 nM (inactive)	92900 nM (inactive)	> 100000 nM (inactive)	79100 nM (inactive)	89900 nM	9660 nM (inactive)	65600 nM (inactive)	> 100000 nM (inactive)	> 100000 nM (inactive)	> 100000 nM (inactive)	> 100000 nM (inactive)	69700 nM (inactive)	> 100000 nM (inactive)	84500 nM (inactive)	> 100000 nM (inactive)	> 100000 nM (inactive)	
CCOC(=O)NC(Nc1ccc(C)cc1)(C(F)(F)F)C(F)(F)F	> 100000 nM (inactive)	> 100000 nM (inactive)	> 100000 nM (inactive)		> 100000 nM (inactive)	> 100000 nM (inactive)	> 100000 nM	> 100000 nM (inactive)	> 100000 nM (inactive)	> 100000 nM (inactive)	> 100000 nM (inactive)	> 100000 nM (inactive)	> 100000 nM (inactive)	> 100000 nM (inactive)	> 100000 nM (inactive)		> 100000 nM (inactive)	> 100000 nM (inactive)	> 100000 nM (inactive)
